Results from ChEMBL document CHEMBL5346961, “Discovery and Evaluation of 3-Quinoxalin Urea Derivatives as Potent, Selective, and Orally Available ATM Inhibitors Combined with Chemotherapy for the Treatment of Cancer via Goal-Oriented Molecule Generation and Virtual Screening” (J Med Chem, 2023).
Activity calls are given as the source filed them. The calls are words filed in the database; no cut-off is given here.

Legend:
[1] = Metabolic stability in human liver microsomes assessed as clearance at 1 uM in presence of NADPH-regenerating system by LC-MS/MS analysis; assay type: ADME, Microsome
[2] = Metabolic stability in human liver microsomes assessed as half life at 1 uM in presence of NADPH-regenerating system by LC-MS/MS analysis; assay type: ADME, Microsome
[3] = tested on: HCT-116; experiment: Inhibition of colony formation in human HCT-116 cells at 0.01 uM preincubated for 1 hr followed by exposure to 2 Gy gamma irradiation and measured after 1 week by crystal violet staining based […] assay relative to control; assay type: functional; conditions: HCT-116, light or radiation study, time 169 hrs
[4] = tested on: HCT-116; experiment: Antiproliferative activity against human HCT-116 cells assessed as reduction in cell viability incubated for 6 days by MTT assay; assay type: functional, cell-based; conditions: HCT-116, 144 h
[5] = tested on: MCF7; experiment: Antiproliferative activity against human MCF7 cells assessed as reduction in cell viability incubated for 6 days by MTT assay; assay type: functional, cell-based; conditions: MCF7, 144 h
[6] = tested on: MCF7; experiment: Synergistic antiproliferative activity against human MCF7 cells assessed as fold increase in irinotecan IC50 at 200 nM measured after 6 days by MTT assay; assay type: functional; conditions: time 6 day
[7] = tested on: MCF7; experiment: Synergistic antiproliferative activity against human MCF7 cells assessed as combination index at […] measured after 6 days in presence etoposide by MTT assay; assay type: functional; conditions: dose lower 100 µM; time 6 day
[8] = tested on: MCF7; experiment: Synergistic antiproliferative activity against human MCF7 cells assessed as combination index at […] measured after 6 days in presence irinotecan by MTT assay; assay type: functional; conditions: dose lower 100 µM; time 6 day
[9] = tested on: SW-620; experiment: Synergistic antiproliferative activity against human SW620 cells assessed as fold increase in irinotecan IC50 at 100 nM measured after 6 days by MTT assay; assay type: functional; conditions: time 6 day
[10] = tested on: SW-620; experiment: Synergistic inhibition of colony formation in human SW620 cells assessed as fold increase in irinotecan IC50 at 200 nM preincubated for 1 hr followed by irinotecan addition and measured after 1 week by crystal violet staining based […] assay; assay type: functional; conditions: time 169 hrs
[11] = tested on: HCT-116; experiment: Induction of apoptosis in human HCT-116 cells assessed as viable cells at 1 uM measured after 2 days by AnnexinV-FITC/PI staining based analysis (reference value: 72.8%); assay type: functional; conditions: HCT-116, 48 h, time 2 day, read-out: Activity
[12] = tested on: HCT-116; experiment: Induction of apoptosis in human HCT-116 cells assessed as viable cells at 2 uM measured after 2 days by AnnexinV-FITC/PI staining based analysis (reference value: 72.8%); assay type: functional; conditions: HCT-116, 48 h, time 2 day, read-out: Activity
[13] = tested on: HCT-116; experiment: Induction of apoptosis in human HCT-116 cells assessed as early apoptotic cells at 2 uM measured after 2 days by AnnexinV-FITC/PI staining based analysis (reference value: 14.4%); assay type: functional; conditions: time 2 day
[14] = tested on: HCT-116; experiment: Induction of apoptosis in human HCT-116 cells assessed as early apoptotic cells at 4 uM measured after 2 days by AnnexinV-FITC/PI staining based analysis (reference value: 14.4%); assay type: functional; conditions: time 2 day
[15] = tested on: HCT-116; experiment: Induction of apoptosis in human HCT-116 cells assessed as late apoptotic cells at 1 uM measured after 2 days by AnnexinV-FITC/PI staining based analysis (reference value: 12.2%); assay type: functional; conditions: time 2 day
[16] = tested on: HCT-116; experiment: Induction of apoptosis in human HCT-116 cells assessed as late apoptotic cells at 2 uM measured after 2 days by AnnexinV-FITC/PI staining based analysis (reference value: 12.2%); assay type: functional; conditions: time 2 day
[17] = tested on: HCT-116; experiment: Induction of apoptosis in human HCT-116 cells assessed as necrotic cells at 2 uM measured after 2 days by AnnexinV-FITC/PI staining based analysis (reference value: 0.64%); assay type: functional; conditions: time 2 day
[18] = tested on: HCT-116; experiment: Induction of apoptosis in human HCT-116 cells assessed as early apoptotic cells at 1 uM measured after 2 days in presence of irinotecan by AnnexinV-FITC/PI staining based analysis (reference value: 14.4%); assay type: functional; conditions: time 2 day
[19] = tested on: HCT-116; experiment: Induction of apoptosis in human HCT-116 cells assessed as early apoptotic cells at 4 uM measured after 2 days in presence of irinotecan by AnnexinV-FITC/PI staining based analysis (reference value: 14.4%); assay type: functional; conditions: time 2 day
[20] = tested on: HCT-116; experiment: Induction of apoptosis in human HCT-116 cells assessed as late apoptotic cells at 1 uM measured after 2 days in presence of irinotecan by AnnexinV-FITC/PI staining based analysis (reference value: 12.2%); assay type: functional; conditions: time 2 day
[21] = tested on: HCT-116; experiment: Induction of apoptosis in human HCT-116 cells assessed as necrotic cells at 1 uM measured after 2 days in presence of irinotecan by AnnexinV-FITC/PI staining based analysis (reference value: 0.64%); assay type: functional; conditions: time 2 day
[22] = tested on: HCT-116; experiment: Induction of apoptosis in human HCT-116 cells assessed as necrotic cells at 4 uM measured after 2 days in presence of irinotecan by AnnexinV-FITC/PI staining based analysis (reference value: 0.64%); assay type: functional; conditions: time 2 day
[23] = molecular target: Serine-protein kinase ATM (Homo sapiens, UniProt Q13315); experiment: Inhibition of ATM (unknown origin) at 1 uM in presence of [gamma33P-ATP] by scintillation counting method relative to control
[24] = molecular target: T1, DNA-dependent protein kinase catalytic subunit (Homo sapiens, UniProt P78527); experiment: Inhibition of DNA-PK (unknown origin) at 1 uM in presence of [gamma33P-ATP] by scintillation counting method relative to control
T1 sequence (P78527 whole entry): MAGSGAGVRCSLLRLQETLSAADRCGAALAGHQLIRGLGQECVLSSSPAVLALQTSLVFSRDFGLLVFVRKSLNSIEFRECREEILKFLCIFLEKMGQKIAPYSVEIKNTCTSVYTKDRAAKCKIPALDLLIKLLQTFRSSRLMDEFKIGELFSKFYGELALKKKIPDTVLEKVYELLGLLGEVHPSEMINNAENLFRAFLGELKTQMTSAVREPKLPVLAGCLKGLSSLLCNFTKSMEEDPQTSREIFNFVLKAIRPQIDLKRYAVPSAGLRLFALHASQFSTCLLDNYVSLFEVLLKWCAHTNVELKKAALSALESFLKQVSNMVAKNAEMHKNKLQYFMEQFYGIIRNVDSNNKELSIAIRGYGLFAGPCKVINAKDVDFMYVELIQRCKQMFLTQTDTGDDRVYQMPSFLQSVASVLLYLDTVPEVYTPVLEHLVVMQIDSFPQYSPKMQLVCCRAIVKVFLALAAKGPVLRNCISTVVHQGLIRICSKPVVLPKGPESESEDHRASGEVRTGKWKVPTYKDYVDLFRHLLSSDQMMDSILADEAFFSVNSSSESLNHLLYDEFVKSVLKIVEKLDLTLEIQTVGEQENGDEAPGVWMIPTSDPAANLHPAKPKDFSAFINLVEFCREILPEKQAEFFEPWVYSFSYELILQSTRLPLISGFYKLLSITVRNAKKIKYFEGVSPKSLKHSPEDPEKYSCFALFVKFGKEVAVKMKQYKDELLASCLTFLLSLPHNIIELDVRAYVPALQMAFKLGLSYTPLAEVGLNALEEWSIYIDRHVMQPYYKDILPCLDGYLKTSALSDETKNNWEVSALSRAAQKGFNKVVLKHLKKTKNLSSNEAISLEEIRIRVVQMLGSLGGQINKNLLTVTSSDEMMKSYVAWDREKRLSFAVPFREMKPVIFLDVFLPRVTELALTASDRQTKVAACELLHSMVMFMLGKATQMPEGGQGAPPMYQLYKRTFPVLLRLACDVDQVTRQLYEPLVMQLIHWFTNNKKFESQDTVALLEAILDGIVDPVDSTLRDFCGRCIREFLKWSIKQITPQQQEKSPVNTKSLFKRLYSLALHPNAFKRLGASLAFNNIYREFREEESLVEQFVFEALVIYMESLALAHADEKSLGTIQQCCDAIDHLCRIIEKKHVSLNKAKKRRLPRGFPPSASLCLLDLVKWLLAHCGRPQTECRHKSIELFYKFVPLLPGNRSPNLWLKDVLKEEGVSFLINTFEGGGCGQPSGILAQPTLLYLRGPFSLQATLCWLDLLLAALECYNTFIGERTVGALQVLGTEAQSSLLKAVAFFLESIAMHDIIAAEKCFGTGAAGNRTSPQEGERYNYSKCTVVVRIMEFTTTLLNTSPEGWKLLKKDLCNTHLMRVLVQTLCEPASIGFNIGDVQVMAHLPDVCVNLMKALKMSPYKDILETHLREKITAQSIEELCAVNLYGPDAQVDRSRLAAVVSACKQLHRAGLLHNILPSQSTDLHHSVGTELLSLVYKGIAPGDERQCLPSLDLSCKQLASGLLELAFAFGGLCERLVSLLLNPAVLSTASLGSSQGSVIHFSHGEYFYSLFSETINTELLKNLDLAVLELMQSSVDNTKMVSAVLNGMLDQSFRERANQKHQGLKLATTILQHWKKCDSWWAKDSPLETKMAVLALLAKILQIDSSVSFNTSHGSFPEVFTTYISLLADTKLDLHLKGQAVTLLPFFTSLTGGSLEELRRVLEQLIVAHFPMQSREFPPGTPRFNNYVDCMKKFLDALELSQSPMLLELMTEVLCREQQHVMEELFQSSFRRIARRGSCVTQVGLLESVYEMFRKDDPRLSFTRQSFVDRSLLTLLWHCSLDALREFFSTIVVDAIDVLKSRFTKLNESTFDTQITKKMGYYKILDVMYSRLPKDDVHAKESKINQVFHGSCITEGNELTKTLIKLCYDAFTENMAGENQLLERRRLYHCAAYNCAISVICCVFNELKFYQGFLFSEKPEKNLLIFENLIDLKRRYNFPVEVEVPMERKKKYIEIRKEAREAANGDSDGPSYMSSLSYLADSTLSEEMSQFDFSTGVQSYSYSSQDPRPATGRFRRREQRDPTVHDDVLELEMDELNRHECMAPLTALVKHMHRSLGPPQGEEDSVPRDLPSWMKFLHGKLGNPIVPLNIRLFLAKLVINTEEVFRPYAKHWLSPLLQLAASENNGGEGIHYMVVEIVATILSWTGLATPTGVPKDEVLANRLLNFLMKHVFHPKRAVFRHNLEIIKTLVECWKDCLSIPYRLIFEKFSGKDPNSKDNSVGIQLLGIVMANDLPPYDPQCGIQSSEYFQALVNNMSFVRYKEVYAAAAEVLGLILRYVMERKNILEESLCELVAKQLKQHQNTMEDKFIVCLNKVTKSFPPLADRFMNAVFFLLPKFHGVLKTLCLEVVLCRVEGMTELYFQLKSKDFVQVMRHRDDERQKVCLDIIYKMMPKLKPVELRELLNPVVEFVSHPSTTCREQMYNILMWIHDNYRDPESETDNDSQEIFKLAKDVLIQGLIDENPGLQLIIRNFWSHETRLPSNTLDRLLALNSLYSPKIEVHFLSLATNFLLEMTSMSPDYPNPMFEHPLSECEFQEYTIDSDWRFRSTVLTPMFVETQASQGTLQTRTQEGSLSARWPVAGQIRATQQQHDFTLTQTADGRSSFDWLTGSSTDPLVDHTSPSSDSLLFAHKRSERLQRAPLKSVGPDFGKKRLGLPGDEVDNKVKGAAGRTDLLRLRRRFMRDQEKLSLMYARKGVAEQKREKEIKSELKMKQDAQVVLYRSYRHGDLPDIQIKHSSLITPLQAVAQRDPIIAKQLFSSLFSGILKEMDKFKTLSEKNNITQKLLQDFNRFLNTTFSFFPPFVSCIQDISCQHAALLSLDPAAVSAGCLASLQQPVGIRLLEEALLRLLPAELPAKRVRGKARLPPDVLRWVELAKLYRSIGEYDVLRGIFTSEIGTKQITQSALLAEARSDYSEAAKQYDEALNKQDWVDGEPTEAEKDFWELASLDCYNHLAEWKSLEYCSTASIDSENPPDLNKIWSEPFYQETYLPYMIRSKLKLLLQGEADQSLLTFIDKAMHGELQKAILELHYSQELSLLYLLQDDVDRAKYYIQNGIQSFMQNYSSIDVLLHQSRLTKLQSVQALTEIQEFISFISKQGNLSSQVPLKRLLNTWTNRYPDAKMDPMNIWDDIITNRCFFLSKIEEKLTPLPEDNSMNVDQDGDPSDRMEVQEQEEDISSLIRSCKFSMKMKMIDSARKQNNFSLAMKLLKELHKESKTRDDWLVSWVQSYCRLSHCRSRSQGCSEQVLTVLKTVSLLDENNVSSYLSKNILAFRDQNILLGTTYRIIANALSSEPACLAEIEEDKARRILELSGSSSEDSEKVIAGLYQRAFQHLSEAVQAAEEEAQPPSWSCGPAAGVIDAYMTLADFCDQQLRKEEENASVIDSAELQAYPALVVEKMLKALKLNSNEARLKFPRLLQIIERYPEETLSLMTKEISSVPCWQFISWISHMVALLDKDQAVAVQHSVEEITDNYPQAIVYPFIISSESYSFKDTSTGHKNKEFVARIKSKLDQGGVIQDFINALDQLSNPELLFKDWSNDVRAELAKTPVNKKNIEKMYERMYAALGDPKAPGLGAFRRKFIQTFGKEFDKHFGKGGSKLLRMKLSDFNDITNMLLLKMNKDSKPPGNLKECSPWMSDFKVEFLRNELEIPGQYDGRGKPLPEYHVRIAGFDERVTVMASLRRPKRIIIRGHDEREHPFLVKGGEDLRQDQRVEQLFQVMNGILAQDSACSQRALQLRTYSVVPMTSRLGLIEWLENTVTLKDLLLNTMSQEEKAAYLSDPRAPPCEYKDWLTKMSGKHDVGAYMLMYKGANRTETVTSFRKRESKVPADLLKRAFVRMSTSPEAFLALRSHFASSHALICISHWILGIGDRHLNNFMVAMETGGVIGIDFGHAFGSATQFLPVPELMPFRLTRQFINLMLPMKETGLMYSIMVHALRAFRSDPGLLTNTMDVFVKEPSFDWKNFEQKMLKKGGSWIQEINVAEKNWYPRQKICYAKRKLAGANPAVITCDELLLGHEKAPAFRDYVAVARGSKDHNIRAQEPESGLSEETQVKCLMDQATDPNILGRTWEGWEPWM

[25] = molecular target: T1, DNA-dependent protein kinase catalytic subunit; experiment: Inhibition of DNA-PK (unknown origin) in presence of [gamma33P-ATP] by scintillation counting method
[26] = Apparent permeability of compound across apical to basal membrane in human Caco-2 cells; assay type: ADME, cell-based
[27] = Cmax in Balb/C mouse at 10 mg/kg,po measured upto 48 hrs by LC-MS/MS analysis; assay type: ADME, organism-based; parameters: dose 10 mg/kg, time < 48 hrs, route po; conditions: in vivo
[28] = Tmax in Balb/C mouse at 10 mg/kg,po measured upto 48 hrs by LC-MS/MS analysis; assay type: ADME, organism-based; conditions: in vivo
[29] = Half life in Balb/C mouse at 10 mg/kg,iv measured upto 48 hrs by LC-MS/MS analysis; assay type: ADME, organism-based; conditions: in vivo
[30] = Clearance in Balb/C mouse at 10 mg/kg,iv measured upto 48 hrs by LC-MS/MS analysis; assay type: ADME, organism-based; conditions: in vivo
[31] = Clearance in Balb/C mouse at 10 mg/kg,po measured upto 48 hrs by LC-MS/MS analysis; assay type: ADME, organism-based; conditions: in vivo
[32] = AUC (0 to t) in Balb/C mouse at 10 mg/kg,po measured upto 48 hrs by LC-MS/MS analysis; assay type: ADME, organism-based; parameters: dose 10 mg/kg, time < 48 hrs, route po; conditions: in vivo
[33] = Oral bioavailability in Balb/C mouse at 10 mg/kg measured upto 48 hrs by LC-MS/MS analysis; assay type: ADME, organism-based; conditions: in vivo
[34] = Toxicity in BALB/c nude mouse assessed as drug tolerance at 20 to 40 mg/kg, po administered once daily for 3 days weekly after irinotecan post treatment for 21 days in presence of irinotecan; assay type: organism-based; conditions: in vivo, 504 h, dose 20-40 mg/kg, time 21 day
[35] = tested on: SW-620; experiment: Antitumor activity against human SW620 cells xenografted in BALB/c nude mouse model assessed as tumor growth inhibition administered orally once daily for 3 days weekly after irinotecan post treatment for 21 days by caliper method; assay type: functional, cell-based; conditions: dose 20-40 mg/kg, route po, time 21.0 day
[36] = tested on: HCT-116; experiment: Induction of DNA damage in human HCT-116 cells assessed as reduction in ATM phosphorylation at S1981 residue at 0.5 to 2 uM measured after 4 hrs by Western blot analysis; assay type: functional, cell-based; conditions: dose 0.5-2 µM

CC(C)NC(=O)N(C)c1cnc2ccc(-c3ccc(OCCCN4CCCCC4)nc3)cc2n1
CLH [1]: 1.8 mL/min/g
half-life at 1 µM [2]: 770 min
inhibition at 0.01 µM [3]: 94.1%
IC50 [4]: > 9 µM
IC50 [5]: > 9 µM
fold change (FC) [6]: 15
CI [7]: <1
CI [8]: <1
fold change (FC) [9]: 2.8
fold change (FC) [10]: 11.5
viability at 1 µM [11]: 68%
viability at 2 µM [12]: 67.3%
Activity [13]: 17.6%
Activity [14]: 18.1%
Activity [15]: 12.6%
Activity [16]: 14.2%
Activity [17]: 0.92%
Activity [18]: 49.9%
Activity [19]: 55.7%
Activity [20]: 30.4%
Activity [21]: 2.39%
Activity [22]: 1.73%
inhibition [23]: < 50%
inhibition [24]: < 50%
IC50 [25]: 420 nM
Papp A→B [26]: 1.02 ×10⁻⁶ cm/s
Cmax [27]: 10200 ng/mL
Tmax [28]: 19.8 min
t1/2 [29]: 5.29 h
clearance [30]: 13 mL/min/kg
CL/F [31]: 12.2 mL/min/kg
AUCt [32]: 13.95223 µg·h/mL
bioavailability [33]: 107%
Activity [34]: Toxic
Activity [35]: Dose-Dependent Effect
Activity [36]: Active
